IC50 data for 16 compounds are collected here from BindingDB's records for patent US20250051327 (Exscientia AI, 2025).

This assay deals with T1, Mucosa-associated lymphoid tissue lymphoma translocation protein 1 (Homo sapiens, UniProt Q9UDY8).
T1 sequence (Q9UDY8 whole entry): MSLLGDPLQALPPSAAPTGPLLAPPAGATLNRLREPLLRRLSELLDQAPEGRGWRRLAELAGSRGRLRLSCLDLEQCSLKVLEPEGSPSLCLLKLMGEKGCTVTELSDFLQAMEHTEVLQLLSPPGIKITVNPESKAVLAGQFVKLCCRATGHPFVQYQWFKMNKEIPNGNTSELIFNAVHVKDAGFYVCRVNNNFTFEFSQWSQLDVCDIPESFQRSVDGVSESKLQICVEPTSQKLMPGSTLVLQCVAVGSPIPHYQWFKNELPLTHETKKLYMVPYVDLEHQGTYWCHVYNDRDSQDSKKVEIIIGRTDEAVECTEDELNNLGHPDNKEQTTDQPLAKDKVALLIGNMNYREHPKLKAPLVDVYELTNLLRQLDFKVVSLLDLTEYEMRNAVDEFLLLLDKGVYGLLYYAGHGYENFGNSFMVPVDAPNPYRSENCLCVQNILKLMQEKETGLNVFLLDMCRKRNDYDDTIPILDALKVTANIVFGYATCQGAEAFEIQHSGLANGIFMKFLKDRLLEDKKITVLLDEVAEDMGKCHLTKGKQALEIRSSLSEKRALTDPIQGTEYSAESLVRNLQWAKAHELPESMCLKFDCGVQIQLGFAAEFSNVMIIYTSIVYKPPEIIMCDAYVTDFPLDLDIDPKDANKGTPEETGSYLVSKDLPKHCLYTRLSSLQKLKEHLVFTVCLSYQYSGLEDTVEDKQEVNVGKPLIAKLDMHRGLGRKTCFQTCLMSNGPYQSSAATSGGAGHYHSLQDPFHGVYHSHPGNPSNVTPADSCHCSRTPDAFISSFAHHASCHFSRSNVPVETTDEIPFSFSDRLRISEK
The assay is described as follows: MALT-1 Inhibition Assay. As for the experimental part:
MALT-1 paracaspase activity was measured using the fluorogenic substrate Ac-LRSR-Rh110-DP (purchased from Biosantan GmbH). Proteolytic cleavage of the peptide—rhodamine conjugate results in an increase of rhodamine fluorescence which is inhibited by test compounds. Test compounds were diluted in DMSO in a series of 10 semi-log step doses, 15 nL of each compound dose were dispensed in 384 well polypropylene plates (HiBase non-binding, Greiner Bio-One cat #784900). All other assay components were diluted to appropriate working concentrations in assay buffer composed of: 200 mM Tris-HCl (pH 7.5; Sigma-Aldrich cat #T2663-1L), 0.1 mM EGTA (Sigma-Aldrich cat #E3889-10G), 0.05% CHAPS—Sigma-Aldrich cat #C9426-1G), 1 mM TCEP (Sigma-Aldrich cat #646547-10×1 mL), 0.8 M sodium citrate (Sigma-Aldrich cat #S1804-500G). Recombinant human MALT-1 (amino acids 340-824, accession NP_006776.1) was added to compound doses and equilibrated for 40 minutes at rt. The reaction was initiated by addition of substrate. Final concentrations of MALT-1 and substrate were 3 nM and 10 μM respectively. Reactions were incubated in the dark for 60 minutes at 25° C. Fluorescence was measured in a PHERAstar FSX plate reader (BMG LABTECH) with optical setup for excitation at 485 nm and emission at 520 nm, focal height of 11.8 mm, 20 flashes, gain 300. Percent inhibition values were calculated from relative fluorescence units at different doses and fitted to a 4-parameter logistic curve to determine IC50 values.
Regarding `COc1ccc2ncc(Nc3ccc([C@H](N(C)C(=O)C4CCS(=O)(=O)CC4)C(F)(F)F)cn3)c([C@@H](C)OC)c2n1` (relative stereo) [US20250051327, Reference CPD0019006], the IC50 (as a rule, the midpoint of a concentration-inhibition curve) was 139 nM.
With `COc1ccc2ncc(Nc3ccc([C@H](N(C)C(=O)C4CCS(=O)(=O)CC4)C(F)(F)F)cc3)c([C@H](C)OC)c2n1` (relative stereo) [US20250051327, Reference CPD0019170] the figure was 65 nM.
With `COc1ccc2ncc(Nc3ccc([C@H](N(C)C(=O)C4CCS(=O)(=O)CC4)C(F)(F)F)cc3)c([C@@H](C)OC)c2n1` (relative stereo) [US20250051327, Reference CPD0019171] the figure was 196 nM; with `COc1ccc2ncc(Nc3ccc([C@H](N(C)C(=O)[C@H]4CC[S@@+]([O-])CC4)C(F)(F)F)cc3)c([C@H](C)OC)c2n1` (relative stereo) [US20250051327, Reference CPD0072935], 75 nM; with `COc1ccc2ncc(Nc3ccc([C@H](N(C)C(=O)[C@H]4CC[S@+]([O-])CC4)C(F)(F)F)cc3)c([C@H](C)OC)c2n1` (relative stereo) [US20250051327, Reference CPD0072936], 68 nM.
The result for `COc1ccc2ncc(Nc3ccc([C@H](N(C)C(=O)C4CCS(=O)(=O)CC4)C(F)(F)F)cc3)c([C@H]3CCCO3)c2n1` (relative stereo) [US20250051327, Reference CPD0074043] reads 107 nM; that for `COc1ccc2ncc(Nc3ccc([C@H](N(C)C(=O)C4CCS(=O)(=O)CC4)C(F)(F)F)cc3)c([C@@H]3CCCO3)c2n1` (relative stereo) [US20250051327, Reference CPD0074044], 218 nM; that for `COc1ccc2ncc(Nc3ccc([C@H](N(C)C(=O)[C@@H]4CNC(=O)C4)C(F)(F)F)cc3)c([C@H](C)OC)c2n1` (relative stereo) [US20250051327, Reference CPD0074550], 81 nM.
`C[C@H]1CCN(c2ccc([C@H](N(C)C(=O)[C@H]3CC[S@](=N)(=O)CC3)C(F)(F)F)cc2)c2cnc3cc(F)nn3c21` (relative stereo) [US20250051327, Reference CPD0074553]: the concentration for half-maximal inhibition (IC50) was found to be 39 nM.
Compound `C[C@H]1CCN(c2ccc([C@H](N(C)C(=O)[C@H]3CC[S@@](=N)(=O)CC3)C(F)(F)F)cc2)c2cnc3cc(F)nn3c21` (relative stereo) [US20250051327, Reference CPD0074554] showed a half-inhibitory concentration (IC50) of 44 nM.
As for `COc1ccc2ncc(Nc3ccc([C@H](N(C)C(=O)C4CCN(C(C)=O)CC4)C(F)(F)F)cc3)c([C@H](C)OC)c2n1` (relative stereo) [US20250051327, Reference CPD0074559], the IC50 amounted to 153 nM.
With `COc1ccc2ncc(Nc3ccc([C@H](N(C)C(=O)[C@H]4CNC(=O)C4)C(F)(F)F)cc3)c([C@H](C)OC)c2n1` (relative stereo) [US20250051327, Reference CPD0074562] the figure was 79 nM.
The result for `COc1ccc2ncc(Nc3ccc([C@H](N(C)C(=O)[C@@H]4CCC(=O)N4)C(F)(F)F)cc3)c([C@H](C)OC)c2n1` (relative stereo) [US20250051327, Reference CPD0075580] reads 47 nM; that for `COc1ccc2ncc(Nc3ccc([C@H](N(C)C(=O)[C@H]4CCC(=O)N4)C(F)(F)F)cc3)c([C@H](C)OC)c2n1` (relative stereo) [US20250051327, Reference CPD0075581], 37 nM.
With `CO[C@@H](C)c1c(Nc2ccc([C@H](N(C)C(=O)[C@H]3CNC(=O)C3)C(F)(F)F)cc2)cnn2cc(Cl)nc12` (relative stereo) [US20250051327, Reference CPD0082467] the figure was 42 nM.
`CO[C@@H](C)c1c(Nc2ccc([C@H](N(C)C(=O)[C@H]3CCC(=O)NC3)C(F)(F)F)cc2)cnn2cc(Cl)nc12` (relative stereo) [US20250051327, Reference CPD0082471] returned an IC50 of 37 nM.
